Experimental data reported in US20120071536A1, “N-[(2-AZABICYCLO[2.1.1]HEX-1-YL)-ARYL-METHYL]-BENZAMIDE DERIVATIVES, PREPARATION THEREOF, AND THERAPEUTIC USE THEREOF” (SANOFI, priority 2009, published 2012).
Structures can show the parent of a compound that is named as a salt.

Tests used:
[1] = molecular target: T1, native human transporter GlyT1 (Homo sapiens, UniProt P48067); test: Uptake of [14C]glycine in SK-N-MC cells expressing the native human transporter GlyT1; format: cell-based; conditions: 10 μM [14C]glycine, 10 min at 37° C., pH 7.4, read-out: IC50 (concentration of the compound which reduces by 50% the specific uptake of glycine)
T1 construct: expressing the native human transporter GlyT1; endogenous in cells; host or cells: SK-N-MC cells (human neuroepithelial cells)
T1 sequence (P48067 1-706): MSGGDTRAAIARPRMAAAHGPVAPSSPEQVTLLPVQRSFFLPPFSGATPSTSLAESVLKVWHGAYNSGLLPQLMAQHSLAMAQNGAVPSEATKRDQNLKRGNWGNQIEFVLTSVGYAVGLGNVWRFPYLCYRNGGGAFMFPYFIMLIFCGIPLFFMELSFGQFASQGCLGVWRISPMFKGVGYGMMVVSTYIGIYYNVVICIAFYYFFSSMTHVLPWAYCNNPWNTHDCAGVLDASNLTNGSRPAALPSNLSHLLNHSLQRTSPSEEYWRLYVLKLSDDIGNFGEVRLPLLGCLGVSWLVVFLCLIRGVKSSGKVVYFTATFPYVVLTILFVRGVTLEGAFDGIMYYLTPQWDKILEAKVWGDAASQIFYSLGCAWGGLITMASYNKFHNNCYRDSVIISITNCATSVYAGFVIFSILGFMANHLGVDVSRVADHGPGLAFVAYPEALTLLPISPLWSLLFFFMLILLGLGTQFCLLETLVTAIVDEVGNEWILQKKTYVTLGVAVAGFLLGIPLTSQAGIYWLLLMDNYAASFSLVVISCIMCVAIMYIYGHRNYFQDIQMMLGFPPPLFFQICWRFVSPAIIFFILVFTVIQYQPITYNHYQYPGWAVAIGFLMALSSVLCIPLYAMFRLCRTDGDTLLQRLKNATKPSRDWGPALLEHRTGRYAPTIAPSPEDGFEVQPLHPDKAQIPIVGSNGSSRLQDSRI
Protocol: Study of Glycine Transportation in SK-N-MC Cells Expressing the Native Human Transporter GlyT1.
The uptake of [^14C]glycine is studied in SK-N-MC cells (human neuroepithelial cells) expressing the native human transporter GlyT1 by measuring the radioactivity incorporated in the presence or absence of the test compound. The cells are cultured as a monolayer for 48 hours in plates pretreated with 0.02% fibronectin. On the day of the experiment, the culture medium is removed and the cells are washed with Krebs-HEPES (4-(2-hydroxyethyl)piperazine-1-ethanesulphonic acid) buffer at pH 7.4. After preincubation for 10 minutes at 37° C. in the presence either of buffer (control batch) or of test compound at various concentrations or of 10 mM of glycine (determination of the non-specific uptake), 10 μM of [^14C]glycine (specific activity 112 mCi/mmol) are subsequently added. Incubation is continued for 10 min at 37° C. and the reaction is halted by washing twice with pH 7.4 Krebs-HEPES buffer. The radioactivity incorporated by the cells is then estimated after adding 100 μl of liquid scintillant and stirring for 1 h. Counting is carried out on a Microbeta Tri-Lux™ counter. The effectiveness of the compound is determined by the IC50, the concentration of the compound which reduces by 50% the specific uptake of glycine, defined by the difference in radioactivity incorporated by the control batch and the batch which received the 10 mM glycine.

Compound | melting point [°C] | IC50 [1] [nM]
CN1CC2CC1(C(NC(=O)c1cccc(C(F)(F)F)c1Cl)c1ccccc1)C2.Cl (racemic) [Compound 18, 2-Chloro-N-[(2-methyl-2-azabicyclo[2.1.1]hex-1-yl)(phenyl)methyl]-3-(trifluoromethyl)benzamide hydrochloride (1:1)] | 168.5 to 169.5 | 21
Nc1ccc(C(NC(=O)c2cccc(C(F)(F)F)c2Cl)C23CC(CN2)C3)cc1 (racemic) [Compound 1, N-[(4-Aminophenyl)(2-azabicyclo[2.1.1]hex-1-yl)methyl]-2-chloro-3-(trifluoromethyl)-benzamide] |  | 1100
O=C(NC(c1ccccc1)C12CC(CN1)C2)c1cccc(C(F)(F)F)c1Cl (racemic) [Compound 5, N-[(2-azabicyclo[2.1.1]hex-1-yl)(phenyl)methyl]-2-chloro-3-(trifluoromethyl)benzamide hydrochloride (1:1)] |  | 26
CSc1ccc(Cl)c(C(=O)NC(c2ccccc2)C23CC(CN2)C3)c1 (racemic) [Compound 11, N-[(2-Azabicyclo[2.1.1]hex-1-yl)(phenyl)methyl]-2-chloro-5-(methylsulphanyl)-benzamide] | 115 to 117 | 160
CCc1ccccc1C(=O)NC(c1ccccc1)C12CC(CN1CC)C2 (racemic) [Compound 31, 2-Ethyl-N-[(2-ethyl-2-azabicyclo[2.1.1]hex-1-yl)(phenyl)methyl]benzamide] |  | 1.6
O=C(NC(c1ccccc1)C12CC(CN1CC(F)(F)F)C2)c1c(Cl)ccc(C(F)(F)F)c1Cl (racemic) [Compound 23, 2,6-Dichloro-N-{(phenyl)[2-(2,2,2-trifluoroethyl)-2-azabicyclo[2.1.1]hex-1-yl]methyl}-3-(trifluoromethyl)benzamide] | 82 to 83 | 300
CC(C)(O)CN1CC2CC1(C(NC(=O)c1c(Cl)ccc(C(F)(F)F)c1Cl)c1ccccc1)C2 (racemic) [Compound 22] |  | 110
